Measured values as given in PMC6395927, “Rufomycin Targets ClpC1 Proteolysis in Mycobacterium tuberculosis and M. abscessus” (Antimicrobial Agents and Chemotherapy, 2019).
Values after ≈ are worked out from the molar mass of the structure shown. Like-named read-outs stand apart in the source and are kept apart here. Numbered stars: 1 amine (or outer) side, 2 acyl side, 3 side chain; on linkers, the order of the positions; unused ones are H or OH. Bridge positions count the residues as written; N and C are the ends. Square brackets hold non-standard residues; d marks the D form. Peptide text beside a SMILES is read from it. * marks the point of attachment. ξ: configuration not given here. NMeTrp(4-OMe) = CN[CH](Cc1c[nH]c2cccc(OC)c12)C(=O)O; X1 = O=C(C(N[*:1])C(O)c1ccccc1)[*:2]; NMeI = CC[CH](C)[CH](NC)C(=O)O; ξNMe2Val = CC(C)C(C(=O)*)N(C)C; NMeT = CN[CH](C(=O)O)[CH](C)O; NMeL = CN[CH](CC(C)C)C(=O)O; NMeV = CN[CH](C(=O)O)C(C)C

Experiments:
M. kansasii (ATCC 12478) = test: microbe, parasite or virus in culture; format: cell-based; conditions: Mycobacterium kansasii, ATCC12478
M. chelonae (ATCC 35752) = test: microbe, parasite or virus in culture; format: cell-based, Mycobacterium chelonae; conditions: Mycobacteroides chelonae, ATCC35752
M. marinum (ATCC 927) = test: microbe, parasite or virus in culture; format: cell-based; conditions: Mycobacterium marinum, ATCC927
[1] = test system: Escherichia coli (ATCC 25922); test: MIC against nonmycobacteria (OD570); format: cell-based; conditions: ATCC25922, E. coli
From the text: (§1) Standard compounds used were ampicillin (AMP) and gentamicin (GEN). […] Amphotericin B (AmphB) and ketoconazole (KETO) were used as standard compounds.

[2] = test system: Candida albicans (ATCC 10231); test: MIC against nonmycobacteria (OD570); format: cell-based; conditions: ATCC10231, C. albicans
From the text: as §1

[3] = test system: Staphylococcus aureus (ATCC 29213); test: MIC against nonmycobacteria (OD570); format: cell-based; conditions: ATCC29213, S. aureus
From the text: as §1

[4] = test system: M. tuberculosis 5 global clade representatives; test: microbe, parasite or virus in culture; format: cell-based; conditions: Mycobacterium tuberculosis, read-out: MICs
[5] = test system: M. smegmatis (ATCC 700084); test: microbe, parasite or virus in culture; format: cell-based; conditions: Mycolicibacterium smegmatis, ATCC700084
[6] = test system: J774A.1 macrophage (ATCC TIB-67); test: Cytotoxicity in mammalian cells (resazurin); format: cell-based, murine; conditions: Mus musculus, J774.A1; J774, 72 h
Vero cell (ATCC CRL-81) = test: cells; format: cell-based; conditions: Chlorocebus sabaeus, 72 h
M. avium (ATCC 15769) = test: microbe, parasite or virus in culture; format: cell-based; conditions: Mycobacterium avium, ATCC15769
[7] = test system: M. abscessus (ATCC 19977); test: microbe, parasite or virus in culture; format: cell-based, Mycobacterium abscessus; conditions: Mycobacteroides abscessus
M. bovis (ATCC 35734) = test: microbe, parasite or virus in culture; format: cell-based; conditions: Mycobacterium tuberculosis variant bovis, ATCC35734
[8] = test system: M. tuberculosis strain H37Rv (ATCC 27294); test: microbe, parasite or virus in culture; format: cell-based, Mycobacterium tuberculosis; conditions: Mycobacterium tuberculosis
ClpC1 = ClpC1 (Mycobacterium tuberculosis, UniProt P9WPC9); format: biochemical, M. tuberculosis
[9] = test system: nonreplicating cultures of M. tuberculosis; test: microbe, parasite or virus in culture; format: cell-based, Mycobacterium tuberculosis; conditions: Mycobacterium tuberculosis
[10] = ECU, micelle formulation; cited from earlier work
M. tuberculosis = test: microbe, parasite or virus in culture; format: cell-based, Mycobacterium tuberculosis; conditions: Mycobacterium tuberculosis, read-out: MBC (minimum bactericidal concentration)
ClpC1/P1/P2 complex = ClpC1/P1/P2 complex (Mycobacterium tuberculosis, UniProt P9WPC9); format: biochemical, M. tuberculosis
[11] = test system: MDA-MB-231 breast cancer cells; test: Cytotoxicity against cancer cell lines (CellTiter 96); format: cell-based; conditions: Homo sapiens; MDA-MB-231, paclitaxel column
Experimental: (§2) Human melanoma cancer cells (MDA-MB-435), human breast cancer cells (MDA-MB-231), and human ovarian cancer cells (OVCAR3) were purchased from the American Type Culture Collection (Manassas, VA). Each cell line was propagated at 37°C in 5% CO2 in RPMI 1640 medium supplemented with FBS (10%), penicillin (100 U/ml), and streptomycin (100 μg/ml). Cells in log phase were harvested by trypsinization, followed by two washing cycles to remove all traces of enzyme. A total of 5,000 cells were seeded per well of a 96-well clear, flat-bottom plate (Microtest 96; Falcon) and incubated overnight (37°C in 5% CO2). Samples dissolved in DMSO were then diluted and added to the respective wells. The cells were incubated in the presence of test substance for 72 h at 37°C and evaluated for viability with a commercial absorbance assay (CellTiter 96 AQueous One Solution cell proliferation assay; Promega Corp., Madison, WI) that measured viable cells. IC50 values are expressed in micromolar values relative to the solvent (DMSO) control.

[12] = test system: OVCAR 3 ovarian cancer cells; test: as above; format: cell-based; conditions: Homo sapiens; OVCAR 3, paclitaxel column
Experimental: as §2

[13] = test system: MDA-MB-435 melanoma cells; test: as above; format: cell-based; conditions: Homo sapiens; MDA-MB-435, paclitaxel column
Experimental: as §2

[14] = ATCC19977, M. abscessus, read-out: MIC

Chain of ClpC1 (P9WPC9 whole entry): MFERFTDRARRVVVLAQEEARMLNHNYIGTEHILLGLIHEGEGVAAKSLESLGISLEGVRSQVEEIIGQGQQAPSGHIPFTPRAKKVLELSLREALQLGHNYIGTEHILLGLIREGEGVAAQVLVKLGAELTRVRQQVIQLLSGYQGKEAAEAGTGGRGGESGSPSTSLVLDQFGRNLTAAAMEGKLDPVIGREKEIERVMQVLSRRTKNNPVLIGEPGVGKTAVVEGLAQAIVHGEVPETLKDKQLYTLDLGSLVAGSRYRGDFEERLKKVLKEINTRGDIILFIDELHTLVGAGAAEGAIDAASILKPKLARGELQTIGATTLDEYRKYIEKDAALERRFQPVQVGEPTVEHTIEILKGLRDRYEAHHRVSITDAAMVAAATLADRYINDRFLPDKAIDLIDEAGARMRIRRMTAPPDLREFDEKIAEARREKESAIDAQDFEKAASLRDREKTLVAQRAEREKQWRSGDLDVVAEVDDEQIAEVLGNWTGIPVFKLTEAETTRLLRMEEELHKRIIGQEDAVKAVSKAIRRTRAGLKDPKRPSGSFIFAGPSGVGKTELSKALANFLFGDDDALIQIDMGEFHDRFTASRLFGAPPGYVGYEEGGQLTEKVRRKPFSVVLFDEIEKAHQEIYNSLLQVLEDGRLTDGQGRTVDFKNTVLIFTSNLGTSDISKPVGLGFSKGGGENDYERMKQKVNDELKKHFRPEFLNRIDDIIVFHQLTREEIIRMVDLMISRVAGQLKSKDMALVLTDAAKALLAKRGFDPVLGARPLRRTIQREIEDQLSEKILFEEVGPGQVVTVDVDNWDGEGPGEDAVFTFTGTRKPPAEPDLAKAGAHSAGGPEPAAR
Chain of ClpC1/P1/P2 complex (P9WPC9 whole entry, one chain of several): as the sequence (P9WPC9 whole entry) above

Work on CO[C@H](c1ccccc1)[C@@H]1NC(=O)[C@H](C)NC(=O)[C@H](C[C@@H](C)CO)N(C)C(=O)[C@H]([C@H](O)c2cn(C(C)(C)[C@@H]3CO3)c3ccccc23)NC(=O)[C@H]([C@H](C)C=C(C)C)NC(=O)[C@H](CC(C)C)N(C)C(=O)[C@H](C(C)C)NC1=O (stereo in doubt) [CYMA, cyclomarin A] yielded an MIC (M. kansasii (ATCC 12478); M. kansasii, read-out: MIC) of 1.11 µM (≈ 1.16 µg/mL), an MIC (M. chelonae (ATCC 35752); M. chelonae, read-out: MIC) greater than 5 µM and an MIC (M. marinum (ATCC 927); M. marinum, read-out: MIC) of 0.58 µM (≈ 0.605 µg/mL). It also gave an MIC [1] greater than 10 µM, an MIC [2] greater than 10 µM and an MIC [3] greater than 10 µM. The MIC [4] was 0.012 to 0.079 µM (≈ 0.0125 to 0.0824 µg/mL), the MIC ([5]; M. smegmatis, read-out: MIC) was 1.6 µM (≈ 1.67 µg/mL) and the IC50 [6] was 19 µM. The IC50 (Vero cell (ATCC CRL-81)) was greater than 50 µM, the MIC (M. avium (ATCC 15769); M. avium, read-out: MIC) was 4.85 µM (≈ 5.06 µg/mL) and the MIC [7, 14] was greater than 5 µM. For the same compound, the MIC (M. bovis (ATCC 35734)) was less than 0.02 µM and the MIC [8] was 0.094 µM (≈ 0.0981 µg/mL).
Work on CC1(C)S[C@@H]2[C@H](NC(=O)[C@H](N)c3ccccc3)C(=O)N2[C@H]1C(=O)O [AMP, ampicillin] yielded an MIC [1] of 16 µM (≈ 5.59 µg/mL) and an MIC [3] of 6.1 µM (≈ 2.13 µg/mL).
Compound COc1nc2ccc(Br)cc2cc1[C@@H](c1ccccc1)[C@@](O)(CCN(C)C)c1cccc2ccccc12 [BDQ, bedaquiline] has an MIC (M. kansasii (ATCC 12478); M. kansasii, read-out: MIC) of 0.029 µM (≈ 0.0161 µg/mL), an MIC (M. chelonae (ATCC 35752); M. chelonae, read-out: MIC) of 0.46 µM (≈ 0.256 µg/mL) and an MIC (M. marinum (ATCC 927); M. marinum, read-out: MIC) of 0.29 µM (≈ 0.161 µg/mL). It also gave an MIC [4] of 0.017 to 0.11 µM (≈ 0.00944 to 0.0611 µg/mL), an IC50 [6] of 20 µM and an IC50 (Vero cell (ATCC CRL-81)) of 27 µM. It also gave an MIC (M. avium (ATCC 15769); M. avium, read-out: MIC) of 0.049 µM (≈ 0.0272 µg/mL), an MIC [7, 14] of 0.96 µM (≈ 0.533 µg/mL) and an MIC (M. bovis (ATCC 35734)) of 0.1 µM (≈ 0.0556 µg/mL). For the same compound, the MIC [8] was 0.13 µM (≈ 0.0722 µg/mL).
For CCC(C)C(C(=O)NC1C(=O)N(C)C(C(C)O)C(=O)NC(C(C)C)C(=O)N(C)C(CC(C)C)C(=O)NC(C(C)C)C(=O)N(C)C(C(C)C)C(=O)N(C)C(Cc2c[nH]c3cccc(OC)c23)C(=O)NC(C(C)C)C(=O)NC(C(O)c2ccccc2)C(=O)NC(C(C)C)C(=O)OC1C)N(C)C(=O)C(NC(=O)C(C(C)C)N(C)C)C(C)C (centres unmarked) [ECU, ecumicin] (ξNMe2Val-V[NMeI]T[NMeT]V[NMeL]V[NMeV][NMeTrp(4-OMe)]V[X1]V; ester 3-C; configuration not given here), the MIC (M. kansasii (ATCC 12478); M. kansasii, read-out: MIC) was 4 µM (≈ 6.4 µg/mL), the MIC (M. chelonae (ATCC 35752); M. chelonae, read-out: MIC) was 0.97 µM (≈ 1.55 µg/mL) and the MIC (M. marinum (ATCC 927); M. marinum, read-out: MIC) was 0.95 µM (≈ 1.52 µg/mL). For the same compound, the MIC [1] was greater than 32 µM, the MIC [2] was greater than 32 µM and the MIC [3] was greater than 32 µM. The MIC [4] was 0.13 to 0.38 µM (≈ 0.208 to 0.608 µg/mL), the “effect on ClpC1 ATPase activity” value (ClpC1) was “stimulates the ATPase activity” and the MBC [9] was 1.5 µM (≈ 2.4 µg/mL). For the same compound, the MIC ([5]; M. smegmatis, read-out: MIC) was 1.7 µM (≈ 2.72 µg/mL), the terminal half-life [10] was 3 h and the MIC (M. avium (ATCC 15769); M. avium, read-out: MIC) was 0.35 µM (≈ 0.56 µg/mL). It also gave an MIC [7, 14] greater than 63 µM, an MIC (M. bovis (ATCC 35734)) of less than 0.2 µM and an MIC [8] of 0.16 µM (≈ 0.256 µg/mL). The MBC (M. tuberculosis) was 0.34 µM (≈ 0.544 µg/mL) and the “effect on proteolytic activity of ClpC1/P1/P2 (FITC-casein degradation)” value (ClpC1/P1/P2 complex) was “inhibits ClpC1 proteolysis”.
CNC(C)C1CCC(N)C(OC2C(N)CC(N)C(OC3OCC(C)(O)C(NC)C3O)C2O)O1 (centres unmarked) [GEN, gentamicin] showed an MIC [1] of 0.23 µM (≈ 0.11 µg/mL) and an MIC [3] of 0.33 µM (≈ 0.158 µg/mL).
CO[C@H]1/C=C/O[C@@]2(C)Oc3c(C)c(O)c4c(O)c(c(/C=N/N5CCN(C)CC5)c(O)c4c3C2=O)NC(=O)/C(C)=C\C=C\[C@H](C)[C@H](O)[C@@H](C)[C@@H](O)[C@@H](C)[C@H](OC(C)=O)[C@@H]1C [RIF, rifampin] showed an MIC (M. kansasii (ATCC 12478)) of 0.15 µM (≈ 0.123 µg/mL), an MIC (M. chelonae (ATCC 35752)) greater than 4 µM and an MIC (M. marinum (ATCC 927)) of 0.05 µM (≈ 0.0411 µg/mL). The MIC [4] was 0.01 to 0.027 µM (≈ 0.00823 to 0.0222 µg/mL), the MIC [5] was greater than 120 µM and the IC50 [6] was 95 µM. For the same compound, the IC50 (Vero cell (ATCC CRL-81)) was 120 µM, the MIC (M. avium (ATCC 15769)) was 0.16 µM (≈ 0.132 µg/mL) and the MIC ([7]; ATCC19977) was greater than 4 µM. It also gave an MIC (M. bovis (ATCC 35734)) of less than 0.02 µM and an MIC [8] of 0.04 µM (≈ 0.0329 µg/mL).
With CC(=O)O[C@H]1C(=O)[C@@]2(C)[C@H]([C@H](OC(=O)c3ccccc3)[C@]3(O)C[C@H](OC(=O)[C@H](O)[C@@H](NC(=O)c4ccccc4)c4ccccc4)C(C)=C1C3(C)C)[C@]1(OC(C)=O)CO[C@@H]1C[C@@H]2O [paclitaxel] the IC50 [11] was 0.17 µM, the IC50 [12] was 0.0015 µM and the IC50 [13] was 0.0001 µM.
